We go through four molecules from patent US11827612B2, “Hydroxamic acid derivative, method for producing same and use thereof” (INSTITUTE OF MEDICINAL BIOTECHNOLOGY, CHINESE ACADEMY OF …, priority 2019, dated 2023).

SMILES strings stand for the structures. ≈ marks a conversion by molar mass, not a printed value. Some results are limits rather than exact numbers.

One data set deals with E. coli ATCC 25922. In words: Antibiotic susceptibility test, broth microdilution (CLSI), MIC. The data set is classed as cell-based. As to conditions: Escherichia coli, ATCC25922, 35° C., 18 h, read-out: Minimal inhibitory concentration (MIC). The protocol:
(§1) An antibiotic susceptibility test was carried out using the broth microdilution guidelines as stipulated by the Clinical and Laboratory Standards Institute (CLSI). Test organisms were grown in Mueller-Hinton (MH) or Brain Heart Infusion (BHI) broth. Solutions of compounds to be tested were each diluted in 96-well plates (50 μl per well) to various prescribed concentrations with the MH or BHI broth. Final concentrations of the solutions in each well were as follows: 128, 64, 32, 16, 8, 4, 2, 1, 0.5, 0.25, 0.125, 0.06, and 0.03 μg/ml. The culture mediums in the 96-well plates were inoculated with 5×10^5 CFU/ml of the test organisms, and then the organisms were cultured at 35° C. for 18 h.

For data set [1], the system named is Klebsiella pneumoniae ATCC 700603. The data set is described as above. The data set is classed as cell-based. The settings on record: ATCC700603, 35° C., 18 h, read-out: Minimal inhibitory concentration (MIC). The protocol:
as §1

The subject of data set [2] is NDM-1-producing Klebsiella pneumoniae 2146. The description is as above. The settings on record: 35° C., 18 h, read-out: Minimal inhibitory concentration (MIC). The data set is classed as cell-based. The protocol: as §1
For data set [3], the system named is Enterobacter aerogenes ATCC 13048. The data set is described as above. The data set is classed as cell-based. The settings on record: Klebsiella aerogenes, ATCC13048, 35° C., 18 h, read-out: Minimal inhibitory concentration (MIC). As for the experimental part:
as §1

Data set [4] deals with Pseudomonas aeruginosa ATCC 27853. Described as above. Type of data set: cell-based. The settings on record: ATCC27853, 35° C., 18 h, read-out: Minimal inhibitory concentration (MIC). As for the experimental part: as §1
Data set [5] relates to Enterobacter cloacae ATCC 43560. The data set is described as above. As to conditions: ATCC43560, 35° C., 18 h, read-out: Minimal inhibitory concentration (MIC). Type of data set: cell-based. The protocol: as §1
Data set [6] in a line: Experiments of toxicity in mice, tail vein injection. Type of data set: in vivo. The settings on record: both sexes, ICR, mouse, in vivo. As for the experimental part: (§2) ICR mice of either sex weighing between 18-22 g were randomized into groups of 3 mice per group. […] The number of mice that died and the time of death were recorded. […] Tails were removed from the mice that were not dead from the injection and from the normal mice that were not given any of the compounds, and were then fixed in paraformaldehyde. Tail vessels were observed by HE staining to determine whether or not a lesion existed.

For a further data set, the system named is ICR mice. The data set is described as above. Type of data set: in vivo. As to conditions: for Toxicity/yes or no: ICR mice, tail vein injection; for Mortality rate / Number of deaths / Time of death: both, ICR, mouse, in vivo. As for the experimental part: as §2

With `C[C@H]1COc2c(N3CCN(C)CC3)c(F)cc3c(=O)c(C(=O)O)cn1c23` [Levofloxacin, levofloxacin, reference compound], the MIC in the data set on E. coli ATCC 25922 was no more than 0.25 mg/L; in data set [1], 0.5 mg/L (≈ 1.38 µM); in data set [2] it was greater than 64 mg/L; in data set [3] it was no more than 0.25 mg/L; in data set [4], 1 mg/L (≈ 2.77 µM); in data set [5], no more than 0.25 mg/L.
Take `CO[C@H]1CCC[C@@H]1C#CC#Cc1ccc(C(=O)N[C@H](C(=O)NO)C(C)(C)N)cc1` [I-1, N—((S)-3-amino-1-(hydroxyamino)-3-methyl-1-oxobutan-2-yl)-4-(((1R,2S)-2-methoxycyclopentyl)butan-1,3-diyne-1-yl)benzamide]: the MIC in the data set on E. coli ATCC 25922 stood at 0.125 mg/L (≈ 0.314 µM); in data set [1], 2 mg/L (≈ 5.03 µM); in data set [2], 2 mg/L (≈ 5.03 µM); in data set [3], 1 mg/L (≈ 2.52 µM); in data set [4], 0.5 mg/L (≈ 1.26 µM); in data set [5], 1 mg/L (≈ 2.52 µM). Moreover, in data set [6], the MTD was greater than 100 mg/kg. The values for the Toxicity/yes or no result with ICR mice (dose 100 mg/kg), with ICR mice (dose 200 mg/kg) and in the data set on ICR mice (dose 300 mg/kg) were “no”, “yes” and “yes”, respectively. In addition, the Mortality rate was 0% in the data set on ICR mice (100 mg/kg), 66% in the data set with ICR mice (200 mg/kg) and 100% in the data set with ICR mice (300 mg/kg). In addition, the Number of deaths in the data set on ICR mice (100 mg/kg) is reported as 0; in the data set on ICR mice (200 mg/kg), 2; with ICR mice (300 mg/kg) it was 1. In addition, the values for the Time of death with ICR mice (200 mg/kg) and in the data set with ICR mice (300 mg/kg) were 10 to 20 min and 1 min, respectively.
Consider `CC(C)(N)[C@H](NC(=O)c1ccc(C#CC#Cc2ccc(CN3CCCCC3)cc2)cc1O)C(=O)NO` [I-3, (S)—N-(3-amino-1-(hydroxyamino)-3-methyl-1-oxobutan-2-yl)-2-hydroxy-4-((4-(piperidin-1-ylmethyl)phenyl)butan-1,3-diyne-1-yl)benzamide], for which the MIC was 0.125 mg/L (≈ 0.256 µM) in the data set with E. coli ATCC 25922; 4 mg/L (≈ 8.19 µM) in data set [1]; 2 mg/L (≈ 4.09 µM) in data set [2]; 2 mg/L (≈ 4.09 µM) in data set [3]; 0.5 mg/L (≈ 1.02 µM) in data set [4]; 1 mg/L (≈ 2.05 µM) in data set [5]. Further, in data set [6], the MTD was greater than 100 mg/kg. Moreover, the Toxicity/yes or no entry was “no” in the data set with ICR mice (dose 100 mg/kg), “yes” with ICR mice (dose 200 mg/kg) and “yes” in the data set on ICR mice (dose 300 mg/kg). The results for the Mortality rate in the data set on ICR mice (100 mg/kg), with ICR mice (200 mg/kg) and with ICR mice (300 mg/kg) were 0%, 66% and 100%, respectively. Also, the Number of deaths with ICR mice (100 mg/kg) is listed as 0; in the data set with ICR mice (200 mg/kg) it was 2; in the data set with ICR mice (300 mg/kg), 1. Also, the Time of death with ICR mice (200 mg/kg) is 10 to 20 min; in the data set with ICR mice (300 mg/kg) it was 1 min.
As to `CC(C)(N)[C@H](NC(=O)N1CCN(C#CC#Cc2ccc([N+](=O)[O-])cc2)CC1)C(=O)NO` [I-2, (S)—N-(3-amino-1-(hydroxyamino)-3-methyl-1-oxobutan-2-yl)-4-((4-nitrophenyl)butan-1,3-diyne-1-yl)-piperazin-1-carboxamide], the MIC was 0.125 mg/L (≈ 0.292 µM) in the data set with E. coli ATCC 25922; 2 mg/L (≈ 4.67 µM) in data set [1]; 2 mg/L (≈ 4.67 µM) in data set [2]; 2 mg/L (≈ 4.67 µM) in data set [3]; 0.25 mg/L (≈ 0.584 µM) in data set [4]; 0.5 mg/L (≈ 1.17 µM) in data set [5]. Also, in data set [6], the MTD was greater than 100 mg/kg. Besides, the Toxicity/yes or no result is “no” in the data set with ICR mice (dose 100 mg/kg), “yes” with ICR mice (dose 200 mg/kg) and “yes” in the data set on ICR mice (dose 300 mg/kg). Besides, the Mortality rate was 0% with ICR mice (100 mg/kg), 66% with ICR mice (200 mg/kg) and 100% in the data set with ICR mice (300 mg/kg). Further, the values for the Number of deaths in the data set on ICR mice (100 mg/kg), in the data set with ICR mice (200 mg/kg) and in the data set with ICR mice (300 mg/kg) were 0, 2 and 1, respectively. In addition, the results for the Time of death in the data set with ICR mice (200 mg/kg) and in the data set on ICR mice (300 mg/kg) were 10 to 15 min and 0.5 to 1 min, respectively.
